Tests used:
Assay type in all cases: in vivo
Euphorbia heterophylla = test: Greenhouse pre-emergence (PRE) herbicidal test on EPHHL; details: for % activity: PRE, EPPHL
Procedure, shortened: (§1)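 Scoring ran from 0 (normal growth) to 100 (no emergence or above-ground parts fully destroyed) and was done 20 DAT. Application was pre-emergent in pots of loamy sand (~3.0% humus) sown per species. Plants grew at 10-25° C or 20-35° C by species.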

Galium aparine = test: Greenhouse pre-emergence (PRE) herbicidal test on GALAP; details: PRE, GALAP
Description: (§2) The culture containers used were plastic pots containing loamy sand with approximately 3.0% of humus as substrate. The seeds of the test plants were sown separately for each species.
(§3) For the pre-emergence treatment, the active compounds, suspended or emulsified in water, were applied directly after sowing by means of finely distributing nozzles. The containers were irrigated gently to promote germination and growth and subsequently covered with transparent plastic hoods until the plants had rooted. This cover caused uniform germination of the test plants unless this was adversely affected by the active compounds.
(§4) Depending on the species, the plants were kept at 10-25° C. and 20-35° C., respectively.
(§5) The test period extended over 2 to 4 weeks. During this time, the plants were tended and their response to the individual treatments was evaluated.
(§6) Evaluation was carried out using a scale from 0 to 100. 100 means no emergence of the plants, or complete destruction of at least the above-ground parts, and 0 means no damage or normal course of growth. A good herbicidal activity is given at values of at least 70, and very good herbicidal activity is given at values of at least 85.
(§7) If not stated differently, the respective components A and B, and if appropriate, C were formulated as a 5% by weight strength emulsion concentrate and, with addition of the amount of solvent system, introduced into the spray liquor used for applying the active compound.
(§8) As indicated application was either post emergent (POST) at the respective growth stage (GS) of the weed (BBCH code), or pre-emergent (PRE).
(§9) Assessment was 20 days after treatment (DAT).

Abutilon theophrasti = test: Greenhouse pre-emergence (PRE) herbicidal test on ABUTH
Procedure, shortened: as §1

Polygonum convolvulus = test: Greenhouse pre-emergence (PRE) herbicidal test on POLCO
Description: as §2, §3, §4, §5, §6, §7, §8, §9

Brachiaria decumbens = test: Greenhouse pre-emergence (PRE) herbicidal test on BRADC; details: Urochloa decumbens, BRADC PRE, use rate 200 gai/ha
Description: as §2, §3, §4, §5, §6, §7, §8, §9

Avena fatua = test: Greenhouse pre-emergence (PRE) herbicidal test on AVEFA
Description: as §2, §3, §4, §5, §6, §7, §8, §9

SETFA = test: Greenhouse pre-emergence (PRE) herbicidal test on SETFA; details: Setaria faberi, use rate 50 gai/ha
Commelina benghalensis = test: Greenhouse pre-emergence (PRE) herbicidal test on COMBE; details: Commelina benghalensis, pre-emergence
Procedure, shortened: as §1

Alopecurus myosuroides = test: Greenhouse pre-emergence (PRE) herbicidal test on ALOMY; details: Alopecurus myosuroides, pre-emergence, ALOMY PRE, use rate 200 gai/ha
Procedure, shortened: as §1

Geranium pusillum = test: Greenhouse pre-emergence (PRE) herbicidal test on GERPU; details: Geranium pusillum, pre-emergence, GERPU PRE
Description: as §2, §3, §4, §5, §6, §7, §8, §9

Lolium multiflorum = test: Greenhouse pre-emergence (PRE) herbicidal test on LOLMU; details: Lolium multiflorum, pre-emergence; for inhibition at 200 g/ha: use rate 200 gai/ha
Procedure, shortened: as §1

**Q.** With `CC1(C)CON(Cc2ccc(Cl)cc2Cl)C1=O` [Bixlozone, bixlozone] as the molecule, how does the “% activity” value (Euphorbia heterophylla; use rate 15 gai/ha) read?
**A.** 0%

**Q.** And the “% activity” value (Euphorbia heterophylla; use rate 60 gai/ha)?
**A.** 0%

**Q.** What about the “% activity” value (Galium aparine; use rate 60 gai/ha) of the same molecule?
**A.** 50%

**Q.** What about the “% activity” value (Abutilon theophrasti; PRE, ABUTH, use rate 60 gai/ha) of the same molecule?
**A.** 0%

**Q.** And the “% activity” value (Polygonum convolvulus; use rate 60 gai/ha)?
**A.** 0%

**Q.** How did the inhibition at 200 g/ha (Brachiaria decumbens) turn out when `CCCCOCN(C(=O)CCl)c1c(CC)cccc1CC` [Butachlor, butachlor] was run?
**A.** 30%

**Q.** What about the inhibition at 200 g/ha (Euphorbia heterophylla; Euphorbia heterophylla, pre-emergence, EPHHL PRE, use rate 200 gai/ha) of the same molecule?
**A.** 5%

**Q.** And the inhibition at 50 g/ha (Abutilon theophrasti; Abutilon theophrasti, pre-emergence, ABUTH PRE, use rate 50 gai/ha)?
**A.** 0%

**Q.** And the inhibition at 50 g/ha (Avena fatua; use rate 50 gai/ha)?
**A.** 0%

**Q.** What about the inhibition at 200 g/ha (Avena fatua; use rate 200 gai/ha) of the same molecule?
**A.** 0%

**Q.** What about the inhibition at 50 g/ha (SETFA) of the same molecule?
**A.** 25%

**Q.** And the inhibition at 50 g/ha (Commelina benghalensis; COMBE PRE, use rate 50 gai/ha)?
**A.** 70%

**Q.** And the inhibition at 200 g/ha (Alopecurus myosuroides)?
**A.** 0%

**Q.** And the inhibition at 50 g/ha (Geranium pusillum; use rate 50 gai/ha)?
**A.** 55%

**Q.** And the inhibition at 200 g/ha (Geranium pusillum; use rate 200 gai/ha)?
**A.** 25%

**Q.** What about the inhibition at 50 g/ha (Lolium multiflorum; LOLMU PRE, use rate 50 gai/ha) of the same molecule?
**A.** 0%

**Q.** What about the inhibition at 200 g/ha (Lolium multiflorum; LOLMU PRE) of the same molecule?
**A.** 0%

**Q.** With `CCC(CC)Nc1c([N+](=O)[O-])cc(C)c(C)c1[N+](=O)[O-]` [Pendimethalin, pendimethalin] as the molecule, how does the inhibition at 200 g/ha (Galium aparine; Galium aparine, pre-emergence, use rate 200 gai/ha) read?
**A.** 0%

**Q.** What about the inhibition at 800 g/ha (Galium aparine; Galium aparine, pre-emergence, use rate 800 gai/ha) of the same molecule?
**A.** 10%

**Q.** And the inhibition at 200 g/ha (Abutilon theophrasti; Abutilon theophrasti, pre-emergence, PRE, ABUTH, use rate 200 gai/ha)?
**A.** 65%

**Q.** And the inhibition at 200 g/ha (Commelina benghalensis; PRE, COMBE, use rate 200 gai/ha)?
**A.** 40%

**Q.** What about the inhibition at 800 g/ha (Commelina benghalensis; PRE, COMBE, use rate 800 gai/ha) of the same molecule?
**A.** 50%

**Q.** And the inhibition at 800 g/ha (Polygonum convolvulus; Fallopia convolvulus, pre-emergence, use rate 800 gai/ha)?
**A.** 70%

**Q.** What about the inhibition at 200 g/ha (Lolium multiflorum; PRE, LOLMU) of the same molecule?
**A.** 0%

Source: patent publication US20260007133A1, “HERBICIDAL COMPOSITION COMPRISING AZINE COMPOUNDS” (BASF SE, priority 2022, published 2026)
